This passage reports death and IC50 results from patent US6541480B2, “1-aryl-1,8-naphthylidin-4-one derivative as type IV phosphodiesterase inhibitor” (Suntory Limited, priority 1997, dated 2003).

Molecules are shown by their SMILES. Where a name gives a salt, the structure may show the parent alone.

Data set [1] can be described thus: 28-day repeated administration toxicity in mice. In kind it is in vivo. The following applies: 10 mg/kg per day administered for 28 days to mice.
For data set [2], the system named is TNF-α production by LPS stimulated mouse peritoneal macrophages. As to the kind of experiment: TNF-α production inhibitory activity by LPS stimulated macrophages (ELISA). In kind it is cell-based. The following applies: LPS 10 μg/ml, 8 hours. How it is done: (1) Method of Measurement of TNF-α Production Inhibitory Activity by LPS Stimulated Macrophages
The following assay was used to evaluate the ability of the compound of the present invention to suppress TNF-α production by LPS stimulated macrophages according to Immuno pharmacol. 29, 121-127 (1995).
1) 6 to 10 week old female BALB/c mice were used, 2 ml portions of thioglycolate were intraperitoneally administered, and the abdominal cavities were washed by 10 ml of PBS after 4 days, whereby 1 to 2×10^7 peritoneal cells were obtained per mouse. These were suspended in a hemocyte solution (0.75% ammonium chloride, 17 mM tris-hydrochlorate buffer, pH7.2), centrifuged, then resuspended in an RPMI1640 medium including 10% fetal calf serum and seeded in a 96-well cell culture plate at a density of 1×10^5 cells/50 μl/well. Since these cells adhered strongly to the tissue culture plate and were positive in nonspecific esterase staining, they were used for the test as mouse peritoneal macrophages. Mouse peritoneal macrophages were precultured overnight at 37° C. in 5% CO2 for the experiment.
2) E. Coli (serum type 055:B5) derived LPS was dissolved in PBS in a concentration of 1 mg/ml, then sterilized by filtration. The test compound was dissolved in DMSO to make a 1000-fold concentration solution of the final concentration of use. 10 μl of the above LPS stock solution (final concentration 10 μg/ml) and 1 μl of the tested substance stock solution were added and mixed in 0.5 ml of RPMI1640 medium containing 10% fetal calf serum. This was added to the above cells at 50 μl/well and cultured for 8 hours. The cultured supernatant was recovered from each well and the TNF-α concentration was measured by the ELISA method (Cytoscreen® Immunoassay Kit Mouse TNF-α, BioSource International).

Data set [3] deals with type IV phosphodiesterase. As to the kind of experiment: Type IV phosphodiesterase inhibiting activity (3H-cAMP hydrolysis, PDE IV fraction from U937 cells). In kind it is biochemical. The following applies: PDE IV fraction from human U937 cells, 30° C., 30 minutes. How it is done: (1) Method of Measurement of Type IV Phosphodiesterase Inhibiting Activity
The following assay was used to evaluate the ability of the compound of the present invention to suppress type IV phosphodiesterase, according to Biochemical.
1) Type IV phosphodiesterase activity fractions were prepared as follows. Human histiocytic lymphoma cell line U937 was cultured in an RPMI1640 medium containing 10% fetal calf serum to obtain 10^9 cells of U937. The cells were recovered by centrifugation and suspended in 40 ml of buffer A (20 mM bis-tris, 5 mM 2-mercaptoethanol, 2 mM benzamidine, 2 mM EDTA, 0.1 mM 4-(2-aminoethyl)benzensulfonyl hydrochloride, 50 mM sodium acetate, pH=6.5). The cells were broken by a sonication and centrifuged (4° C., 10,000G, 10 minutes) to obtain a supernatent. This was filtered by a 0.45 μm filter to obtain the soluble fraction.
The soluble fraction obtained was applied into a 1×10 cm DEAE Sepharose column equalibrated with the buffer A. 120 ml of the buffer A containing a linear gradient solution of 0.05 to 1 M sodium acetate was used to separate the phosphodiesterase and recover 24 5-ml fractions. Each of the fractions was measured for the cAMP phosphodiesterase activity.
2) The test compound was reacted at a desired concentration in a reaction mixture containing 20 mM tris-HCl (pH 7.5), 1 mM MgCl2, 100 μM EDTA, 330 μg/ml calf serum albumin, 10 μg/ml 5′-nucleotidase, 0.4 μCi ^3H-cAMP ([…] cAMP) and the type IV phosphodiesterase stored solution at 30° C. for 30 minutes. QAE-Sephadex suspended in 10 mM of hepes-Na (pH-7.0) was added to the reaction mixture which was then allowed to stand for 5 minutes, then the supernatant was obtained, QAE-Sephadex was further added, to the supernatant, and was allowed to stand for 5 minutes, then the supernatant was obtained and measured for radioactivity.

As to `O=C(Nc1c(Cl)cccc1Cl)c1cn(-c2ccc(F)cc2)c2ncccc2c1=O` [Example 99, N-(2,6-Dichlorophenyl)-1-(4-fluorophenyl)-1,4-dihydro[1,8]naphthylidin-4-one-3-carboxamide], the death result in data set [1] is reported as “no death”. The results for the IC50 in data set [2] (Peritoneal macrophage) and in data set [3] were 25 nM and 3.4 nM, respectively.
For `O=C(Nc1cccnc1)c1cn(-c2ccc(F)cc2)c2ncccc2c1=O` [Example 102, 1-(4-Fluorophenyl)-N-(3-pyridyl)-1,4-dihydro[1,8]naphthylidin-4-one-3-carboxamide] the same measures were “no death”, 100 nM and 35 nM.
For `O=C(Nc1ccncc1)c1cn(-c2ccc(F)cc2)c2ncccc2c1=O` [Example 103, 1-(4-Fluorophenyl)-N-(4-pyridyl)-1,4-dihydro[1,8]naphthylidin-4-one-3-carboxamide] the same measures were “no death”, 100 nM and 59 nM.
Take `O=C(Nc1c(Cl)cncc1Cl)c1cn(-c2ccc(F)cc2)c2ncccc2c1=O` [Example 106, N-(3,5-Dichloropyridin-4-yl)-1-(4-fluorophenyl)-1,4-dihydro[1,8]naphthylidin-4-one-3-carboxamide]: in data set [1], the death result is on record as “no death”. The values for the half-maximal inhibitory concentration (IC50) in data set [2] and in data set [3] were 10 nM and 0.4 nM, respectively.
`O=C(Nc1cnccn1)c1cn(-c2ccc(F)cc2)c2ncccc2c1=O` [Example 109, 1-(4-Fluorophenyl)-N-pyrazinyl-1,4-dihydro[1,8]naphthylidin-4-one-3-carboxamide]: the half-maximal inhibitory concentration (IC50) in data set [2] (Peritoneal macrophage) and in data set [3] was 400 nM in each case.
On to `O=C(Nc1cccc2ncccc12)c1cn(-c2ccc(F)cc2)c2ncccc2c1=O` [Example 113, 1-(4-Fluorophenyl)-N-(5-quinolyl)-1,4-dihydro [1,8]naphthylidin-4-one-3-carboxamide], for which the values for the IC50 in data set [2] (Peritoneal macrophage) and in data set [3] were 60 nM and 44 nM, respectively.
Turning to `O=C(Nc1cccc2cnccc12)c1cn(-c2ccc(F)cc2)c2ncccc2c1=O` [Example 114], the IC50 (usually the concentration at which inhibition is half-maximal) was 100 nM in data set [2] (Peritoneal macrophage) and 210 nM in data set [3].
For `O=C(Nc1c(Cl)cncc1Cl)c1cn(-c2ccccc2)c2ncccc2c1=O` [Example 118, N-(3,5-Dichloropyridin-4-yl)-1-phenyl-1,4-dihydro[1,8]naphthylidin-4-one-3-carboxamide], in that order: 0.4 nM and 0.2 nM.
For the molecule `O=C(NCCc1ccncc1)c1cn(-c2ccccc2)c2ncccc2c1=O` [Example 119, 1-Phenyl-N-[2-(4-pyridyl)ethyl]-1,4-dihydro[1,8]naphthylidin-4-one-3-carboxamide], the IC50 is 700 nM in data set [2] and 250 nM in data set [3].
As to `COc1ccc(-n2cc(C(=O)Nc3ccncc3)c(=O)c3cccnc32)cc1` [Example 122, 1-(4-Methoxyphenyl)-N-(4-pyridyl)-1,4-dihydro[1,8]naphthylidin-4-one-3-carboxamide], the results for the IC50 in data set [2] (Peritoneal macrophage) and in data set [3] were 1 nM and 58 nM, respectively.
Turning to `O=C(Nc1c(Cl)cncc1Cl)c1cn(-c2ccc(Cl)cc2)c2ncccc2c1=O` [Example 125, 1-(4-Chlorophenyl)-N-(3,5-dichloropyridin-4-yl)-1,4-dihydro[1,8]naphthylidin-4-one-3-carboxamide], the IC50 in data set [2] (Peritoneal macrophage) worked out at 0.5 nM; in data set [3], 0.8 nM.
Regarding `O=C(Nc1ccncc1)c1cn(-c2cccc(CO)c2)c2ncccc2c1=O` [Example 127, 1-(3-Hydroxymethylphenyl)-N-(4-pyridyl)-1,4-dihydro[1,8]naphthylidin-4-one-3-carboxamide], the values for the IC50 in data set [2] (Peritoneal macrophage) and in data set [3] were 300 nM and 56 nM, respectively.
For `O=C(Nc1ccncc1)c1cn(-c2ccccn2)c2ncccc2c1=O` [Example 132, N-(4-Pyridyl)-1-(2-pyridyl)-1,4-dihydro[1,8]naphthylidin-4-one-3-carboxamide] the same measures were 1000 nM and 760 nM.
As to `O=C(Nc1c(Cl)cncc1Cl)c1cn(-c2ccccn2)c2ncccc2c1=O` [Example 133], the concentration for half-maximal inhibition (IC50) in data set [2] was 4 nM; in data set [3], 6.4 nM.
Regarding `O=C(Nc1cccnc1)c1cn(-c2cccnc2)c2ncccc2c1=O` [Example 134, 1,N-bis-(3-Pyridyl)-1,4-dihydro[1,8]naphthylidin-4-one-3-carboxamide], the IC50 in data set [2] (Peritoneal macrophage) amounted to 800 nM; in data set [3], 470 nM.
For `O=C(Nc1ccncc1)c1cn(-c2cccnc2)c2ncccc2c1=O` [Example 135, 1-(3-Pyridyl)-N-(4-pyridyl)-1,4-dihydro[1,8]naphthylidin-4-one-3-carboxamide] the same measures were 500 nM and 130 nM.
`O=C(Nc1c(Cl)cncc1Cl)c1cn(-c2cccnc2)c2ncccc2c1=O` [Example 136, N-(3,5-Dichloropyridin-4-yl)-1-(3-pyridyl)-1,4-dihydro[1,8]naphthylidin-4-one-3-carboxamide]: the IC50 stood at 3 nM in data set [2] and 0.8 nM in data set [3].
With `O=C(Nc1c(Cl)cccc1Cl)c1cn(-c2ccncc2)c2ncccc2c1=O` [Example 137, N-(2,6-Dichlorophenyl)-1-(4-pyridyl)-1,4-dihydro[1,8]naphthylidin-4-one-3-carboxamide], the figures for the IC50 in data set [2] (Peritoneal macrophage) and in data set [3] were 4 nM and 4.9 nM, respectively.
Turning to `O=C(Nc1cccnc1)c1cn(-c2ccncc2)c2ncccc2c1=O` [Example 138, N-(3-Pyridyl)-1-(4-pyridyl)-1,4-dihydro[1,8]naphthylidin-4-one-3-carboxamide], the values for the IC50 in data set [2] (Peritoneal macrophage) and in data set [3] were 400 nM and 44 nM, respectively.
Consider `Cc1cnccc1NC(=O)c1cn(-c2ccncc2)c2ncccc2c1=O` [Example 140, N-(3-Methylpyridin-4-yl)-1-(4-pyridyl)-1,4-dihydro[1,8]naphthylidin-4-one-3-carboxamide], for which the IC50 in data set [2] was determined as 5 nM; in data set [3], 36 nM.
Regarding `Nc1ccc(-n2cc(C(=O)Nc3ccncc3)c(=O)c3cccnc32)cn1` [Example 143, 1-(2-Aminopyridin-5-yl)-N-(4-pyridyl)-1,4-dihydro[1,8]naphthylidin-4-one-3-carboxamide hydrochloride], the half-maximal inhibitory concentration (IC50) came out at 150 nM in data set [2] (Peritoneal macrophage) and 140 nM in data set [3].
In the case of `O=C(Nc1ccncc1)c1cn(-c2ccc(OCc3ccccc3)nc2)c2ncccc2c1=O` [Example 144, 1-(2-Benzyloxypyridin-5-yl)-N-(4-pyridyl)-1,4-dihydro[1,8]naphthylidin-4-one-3-carboxamide], the IC50 was determined as 700 nM in data set [2] (Peritoneal macrophage) and 140 nM in data set [3].
For `O=C(Nc1c(Cl)cncc1Cl)c1cn(-c2ccc(OCc3ccccc3)nc2)c2ncccc2c1=O` [Example 146, 1-(2-Benzyloxypyridin-5-yl)-N-(3,5-dichloropyridin-4-yl)-1,4-dihydro[1,8]naphthylidin-4-one-3-carboxamide], in that order: 10 nM and 1.7 nM.
As for `O=C(Nc1c(Cl)cncc1Cl)c1cn(-c2ccc(O)nc2)c2ncccc2c1=O` [Example 147, N-(3,5-Dichloropyridin-4-yl)-1-(2-hydroxypyridin-5-yl)-1,4-dihydro[1,8]naphthylidin-4-one-3-carboxamide], the figures for the IC50 in data set [2] (Peritoneal macrophage) and in data set [3] were 20 nM and 1.1 nM, respectively.
For `O=C(Nc1c(Cl)cncc1Cl)c1cn(-c2nccs2)c2ncccc2c1=O` [Example 152, N-(3,5-Dichloropyridin-4-yl)-1-(2-thiazolyl)-1,4-dihydro[1,8]naphthylidin-4-one-3-carboxamide], the IC50 was 30 nM in data set [2] (Peritoneal macrophage) and 5.9 nM in data set [3].
